Results on four compounds are retold here after patent publication US20210015886A1, “COMPOSITION FOR IMPROVING MILD COGNITIVE IMPAIRMENT AND METHOD FOR IMPROVING MILD COGNITIVE IMPAIRMENT” (TOKAI BUSSAN CO., LTD., priority 2019, published 2021).

The conditions of test [1]: stated as known; cited from earlier work.
The nature of test [2]: Antioxidant activity against hydroxyl radicals (degradation of target protein, FIG. 2A). It is filed as biochemical. Conditions: prevention of degradation of target protein. An excerpt: FIG. 2A is a hydroxyl radical, in which 1 is untreated target protein, 2 is no antioxidant added, 3 is IMDP added, 4 is vitamin C added, 5 is ferulic acid added, 6 is IMDP+vitamin C+ferulic acid added; and
(§1) Therefore, by coexisting with these antioxidants, the antioxidant effect of IMDP is retained both for hydroxyl radicals and peroxynitrite radicals.

Test [3] is described as follows: Antioxidant activity against peroxynitrite radicals (proteolytic action on target protein, FIG. 2B). Type of test: biochemical. Conditions: prevention of degradation of target protein.
Source text: FIG. 2B is a proteolytic action by a peroxynitrite radical.
as §1

The conditions of test [4]: stated as known; cited from earlier work. This is another data set of the same source.

Regarding `CC1=C(/C=C/C(C)=C/C=C/C(C)=C/C=C/C=C(C)/C=C/C=C(C)/C=C/C2=C(C)C(=O)[C@@H](O)CC2(C)C)C(C)(C)C[C@H](O)C1=O` [astaxanthin], in test [1], the “antioxidant activity against hydroxyl radicals (known)” value was “strong antioxidant activity”.

With `COc1cc(/C=C/C(=O)O)ccc1O` [ferulic acid], the “antioxidant activity against hydroxyl radicals” value in test [2] is reported as “strong antioxidant activity”.

Consider vitamin E, for which, in test [1], the “antioxidant activity against hydroxyl radicals (known)” value is reported as “strong antioxidant activity”.

`O=C1O[C@H]([C@@H](O)CO)C(O)=C1O` [vitamin C]: the “antioxidant activity against peroxynitrite radicals” value in test [3] was “strong antioxidant activity”. Moreover, in test [4], the “antioxidant activity against peroxynitrite radicals (known)” value is reported as “strong antioxidant activity”.
